The target of assay [1] is T1, Phosphatase ABI1 über den Co-Regulator RCAR11/PYR1 (Arabidopsis thaliana, UniProt O49686+P49597).
T1 sequence (O49686 1-191): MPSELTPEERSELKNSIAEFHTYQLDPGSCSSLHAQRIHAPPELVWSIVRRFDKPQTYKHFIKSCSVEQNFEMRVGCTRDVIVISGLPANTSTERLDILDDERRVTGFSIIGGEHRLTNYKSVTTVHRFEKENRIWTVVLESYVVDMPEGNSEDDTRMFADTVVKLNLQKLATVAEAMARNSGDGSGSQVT
T1 sequence (P49597 1-434): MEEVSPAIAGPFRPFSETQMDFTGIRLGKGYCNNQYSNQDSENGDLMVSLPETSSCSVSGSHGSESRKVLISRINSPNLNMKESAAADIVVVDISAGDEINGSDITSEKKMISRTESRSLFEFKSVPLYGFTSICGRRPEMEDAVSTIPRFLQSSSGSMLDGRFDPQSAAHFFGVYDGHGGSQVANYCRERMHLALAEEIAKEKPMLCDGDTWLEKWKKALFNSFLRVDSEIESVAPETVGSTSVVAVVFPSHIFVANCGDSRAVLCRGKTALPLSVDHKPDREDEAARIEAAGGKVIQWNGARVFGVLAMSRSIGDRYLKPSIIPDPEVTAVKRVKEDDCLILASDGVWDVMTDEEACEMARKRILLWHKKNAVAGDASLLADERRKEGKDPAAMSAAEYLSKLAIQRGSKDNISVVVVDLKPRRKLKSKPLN
Kind of assay: In vitro ABI1 phosphatase inhibition assay via co-regulator RCAR11/PYR1 (MUP dephosphorylation, fluorescence). Type of assay: biochemical. Particulars: Konzentration 5mM of the substance in DMSO and water; 20 min at 35 °C; MUP substrate, emission 460 nm. The source says: Effekte des Phytohormons Abscisinsäure (ABA) auf das Verhalten von Pflanzen unter abiotischem Stress und der Wirkmechanismus von ABA sind in der Literatur beschrieben (vgl. Abrams et al, WO97/23441, Park et al. Science, 2009, 324, 1068; Grill et al. Science, 2009, 324, 1064; Tanokura et al. Biophysics, 2011, 7, 123; Schroeder et al. Plant J. 2010, 61, 290). Daher kann man mit Hilfe eines geeigneten in vitro-Testsystems eine Korrelation zwischen der Wirkung von ABA und der Stressantwort einer Pflanze unter abiotischem Stress ableiten. Unter Wassermangel (Trockenstress) bilden Pflanzen das Phytohormon Abscisinsäure (ABA). Dieses bindet mit einem Co-Regulator (Regulatory Component of ABA-Receptor = RCAR nach Grill et al. Science, 2009, 324, 1064 oder PYR/PYL nach Cutler et al. Science, 2009, 324, 1068) an eine Phosphatase (z.B. ABI1, eine Typ 2C Proteinphosphatase, auch als PP2C abgekürzt) und hemmt diese in ihrer Aktivität. In der Folge wird eine "downstream" Kinase (z.B. SnRK2) nicht mehr dephosphoryliert. Diese somit aktive Kinase schaltet über Phosphorylierung von Transkriptionsfaktoren (z.B. AREB/ABF, vgl. Yoshida et al Plant J. 2010, 61, 672) ein genetisches Schutzprogramm zur Erhöhung der Trockenstresstoleranz an.
In dem im Folgenden beschriebenen Assay wird die Hemmung der Phosphatase ABI1 über den Co-Regulator RCAR11/PYR1 aus Arabidopsis thaliana genutzt. […]

Assay [2] has as its system Brassica napus. In words: Drought stress greenhouse test, in vivo Part A (spray application, visual rating vs stressed control plants). Details: key: 0: kein Effekt; +: leicht positiver Effekt; ++: deutlich positiver Effekt; +++: stark positiver Effekt. Particulars: Trockenstress, Dosierung 250 g/ha, 600 l/ha water, mean rating of 3 pots. The text has this: (§1) Samen von mono- bzw. dikotylen Kulturpflanzen wurden in Plastiktöpfen in sandigem Lehmboden ausgesät, mit Erde oder Sand abgedeckt und im Gewächshaus unter guten Wachstumsbedingungen angezogen. Die Behandlung der Versuchspflanzen erfolgte im frühen Laubblattstadium (BBCH10 - BBCH13). Zur Gewährleistung einer uniformen Wasserversorgung vor Stressbeginn wurden die bepflanzten Töpfe vor Substanzapplikation durch Anstaubewässerung mit Wasser versorgt.
(§2) Die in Form von benetzbaren Pulvern (WP) formulierten erfindungsgemässen Verbindungen wurden als wässrige Suspension mit einer Wasseraufwandmenge von umgerechnet 600 I/ha unter Zusatz von 0,2% Netzmittel (z.B. Agrotin) auf die grünen Pflanzenteile gesprüht. Unmittelbar nach Substanzapplikation erfolgte die Stressbehandlung der Pflanzen.
(§3) Der Trockenstress wurde durch langsames Abtrocknen unter folgenden Bedingungen induziert: • "Tag": 14 Stunden beleuchtet bei ~ 26-30°C • "Nacht": 10 Stunden ohne Beleuchtung bei ~ 18-20°C.
(§4) Die Dauer der jeweiligen Stressphasen richtete sich hauptsächlich nach dem Zustand der gestressten Kontrollpflanzen. Sie wurde (durch Wiederbewässerung und Transfer in ein Gewächshaus mit guten Wachstumsbedingungen) beendet, sobald irreversible Schäden an den gestressten Kontrollpflanzen zu beobachten waren.
(§5) Nach Beendigung der Stressphase folgte eine ca. 4-7 tägige Erholungsphase, während der die Pflanzen abermals unter guten Wachstumsbedingungen im Gewächshaus gehalten wurden. Die Dauer der Erholungsphase richtete sich hauptsächlich danach, wann die Versuchspflanzen einen Zustand erreicht hatten, der eine visuelle Bonitur potenzieller Effekte ermöglichte, und war daher variabel.
(§6) Wenn dieser Zeitpunkt erreicht war, wurde das Erscheinungsbild der mit Testsubstanzen behandelten Pflanzen im Vergleich zu den gestressten Kontrollpflanzen nach folgenden Kategorien erfasst:
(§7) Um auszuschliessen, dass die beobachteten Effekte von der ggf. fungiziden oder insektiziden Wirkung der Testverbindungen beeinflusst wurden, wurde zudem darauf geachtet, dass die Versuche ohne Pilzinfektion oder Insektenbefall abliefen.
(§8) In jedem Versuch wurden pro Kultur und Dosierung Pflanzen in 3 Töpfen behandelt und separat ausgewertet. Die in den unten stehenden Tabellen A-1 bis A-3 angegebenen Werte für die erhaltenen Effekte stellen Mittelwerte aus den erhaltenen Bonituren dar.
(§9) Wirkungen ausgewählter Verbindungen der allgemeinen Formel (I) unter Trockenstress: Tabelle A-1

Assay [3] has as its system Zea mays. The assay is described as above. Set-up: key: 0: kein Effekt; +: leicht positiver Effekt; ++: deutlich positiver Effekt; +++: stark positiver Effekt. Particulars: Trockenstress, 600 l/ha water, mean rating of 3 pots.
Excerpt: as §1, §2, §3, §4, §5, §6, §7, §8, §9

Assay [4] has as its system Triticum aestivum. Described as above. Details: key: 0: kein Effekt; +: leicht positiver Effekt; ++: deutlich positiver Effekt; +++: stark positiver Effekt. Particulars: Trockenstress, 600 l/ha water, mean rating of 3 pots.
Excerpt: as §1, §2, §3, §4, §5, §6, §7, §8, §9

Take `CC(C=CC1(O)C(C)=CC(=O)CC1(C)C)=CC(=O)O` (stereo not shown) [Abscisinsäure]: in assay [1], the “ABI1 Inhibition” value is “++++ (Inhibition ≥ 90 %)”. With `CCn1c(SCc2ccc(C#N)cc2)nnc1-c1ccc(Cl)cc1` [B6-63, 3-(4-Chlorphenyl)-4-ethyl-5-[(4-cyanobenzyl)-sulfanyl]-4H-1,2,4-triazol], the “Effekt (BRSNS)” value in assay [2] was “+++”. Moreover, the “Effekt (ZEAMX)” value in assay [3] (Dosierung 250 g/ha) is reported as “+++”.

Take `Fc1ccc(CSc2nnc(-c3ccc(Cl)cc3)n2C2CC2)cc1` [D6-13, 3-(4-Chlorphenyl)-4-cyclopropyl-5-[(4-fluorbenzyl)-sulfanyl]-4H-1,2,4-triazol]: in assay [4] (Dosierung 25 g/ha), the “Effekt (TRZAS)” value was “++”. Also, the “Effekt (ZEAMX)” value in assay [3] (Dosierung 25 g/ha) is “+++”. `O=C(CSc1nnc(-c2ccc(Cl)cc2)n1C1CC1)Nc1ccccc1Cl` [D6-726]: the “Effekt (TRZAS)” value in assay [4] (Dosierung 250 g/ha) is listed as “++”. Besides, the “Effekt (ZEAMX)” value in assay [3] (Dosierung 250 g/ha) is on record as “+++”.

These data come from patent publication EP3210469A1, “USE OF SUBSTITUTED THIO-1,2,4-TRIAZOLES FOR INCREASING STRESS TOLERANCE IN PLANTS” (Bayer CropScience AG, priority 2016, dated 2017).
